Experimental data reported in US11427548B2 (Arvinas Operations, Inc., priority 2015, dated 2022).
Read-outs that look alike come from different tables or passages of the source.

Target: T1, Androgen Receptor (Homo sapiens, UniProt P10275)
T1 construct: endogenous in cells; host or cells: VCaP cells
T1 sequence (P10275 1-920): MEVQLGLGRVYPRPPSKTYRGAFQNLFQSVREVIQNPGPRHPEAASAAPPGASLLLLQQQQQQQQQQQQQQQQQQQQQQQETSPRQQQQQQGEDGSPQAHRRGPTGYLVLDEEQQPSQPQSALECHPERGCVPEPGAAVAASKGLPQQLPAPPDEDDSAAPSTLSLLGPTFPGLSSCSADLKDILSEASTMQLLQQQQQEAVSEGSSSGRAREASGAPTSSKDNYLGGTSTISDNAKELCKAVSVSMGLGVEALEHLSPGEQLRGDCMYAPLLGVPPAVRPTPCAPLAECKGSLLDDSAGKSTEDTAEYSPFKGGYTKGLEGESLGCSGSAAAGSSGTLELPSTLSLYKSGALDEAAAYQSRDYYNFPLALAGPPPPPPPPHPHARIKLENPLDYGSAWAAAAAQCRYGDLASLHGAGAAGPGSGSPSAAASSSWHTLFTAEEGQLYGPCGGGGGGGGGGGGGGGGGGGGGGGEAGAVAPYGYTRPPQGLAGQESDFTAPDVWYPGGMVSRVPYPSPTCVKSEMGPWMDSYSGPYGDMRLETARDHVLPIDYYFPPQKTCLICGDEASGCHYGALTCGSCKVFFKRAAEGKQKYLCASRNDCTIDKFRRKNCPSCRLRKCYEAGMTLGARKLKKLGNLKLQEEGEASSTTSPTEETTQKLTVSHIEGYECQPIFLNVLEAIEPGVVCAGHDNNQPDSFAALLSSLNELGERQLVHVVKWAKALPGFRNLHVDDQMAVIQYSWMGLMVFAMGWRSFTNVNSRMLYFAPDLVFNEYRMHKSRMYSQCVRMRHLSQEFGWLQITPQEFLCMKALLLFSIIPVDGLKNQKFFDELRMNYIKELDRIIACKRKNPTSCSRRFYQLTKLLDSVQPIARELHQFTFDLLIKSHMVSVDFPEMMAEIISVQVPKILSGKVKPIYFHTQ
Experiment: Androgen Receptor ELISA assay (PathScan AR ELISA) in VCaP cells: AR degradation, Dmax and DC50
Type: cell-based
Summary of the method: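 VCaP cells, 30,000/well, grown ≥3 days in phenol red-free RPMI with 5% charcoal-stripped FBS; compound added in 0.1% DMSO with 0.1 nM R1881, 7 half-log doses, 24 h. Lysate AR quantified by PathScan sandwich ELISA, HRP/TMB read at 450 nm, giving DC50 and Dmax.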

[1] = VCaP cells; Table 36; read-out: VCaP DC50
[2] = read-out: VCaP DC50; concentration that caused 50% Androgen Receptor degradation, VCaP cells (Table 32)
[3] = VCaP, VCaP cells; Table 36; read-out: VCaP Dmax (%)
[4] = VCaP cells; Table 34; read-out: VCaP DC50
[5] = VCaP, VCaP cells; Table 34; read-out: VCaP Dmax (%)

Cc1ncsc1-c1ccc([C@H](C)NC(=O)[C@@H]2C[C@@H](O)CN2C(=O)[C@@H](NC(=O)CN2CCN(CCCCN3CCN(c4ccc(C(=O)N[C@H]5C(C)(C)[C@H](Oc6ccc(C#N)c(Cl)c6)C5(C)C)cn4)CC3)CC2)C(C)(C)C)cc1 [Example 804, N-((1r,3r)-3-(3-chloro-4-cyanophenoxy)-2,2,4,4-tetramethylcyclobutyl)-6-(4-(4-(4-(2-(((S)-1-((2S,4R)-4-hydroxy-2-(((S)-1-(4-(4-methylthiazol-5-yl)phenyl)ethyl)carbamoyl)pyrrolidin-1-yl)-3,3-dimethyl-1-oxobutan-2-yl)amino)-2-oxoethyl)piperazin-1-yl)butyl)piperazin-1-yl)nicotinamide]
DC50 [1]: < 50 nM
Dmax (VCaP, read-out: VCaP Dmax (%), VCaP cells; Table 36): 51 to 70%

Cc1ncsc1-c1ccc(CNC(=O)[C@@H]2C[C@@H](O)CN2C(=O)[C@@H](NC(=O)COCCCCOc2cccc(-c3ccc(N4C(=S)N(c5ccc(C#N)c(C(F)(F)F)c5)C(=O)C4(C)C)cc3)c2)C(C)(C)C)cc1 [Example 99, (2S,4R)-1-[(2S)-2-(2-{4-[3-(4-{3-[4-cyano-3-(trifluoromethyl)phenyl]-5,5-dimethyl-4-oxo-2-sulfanylideneimidazolidin-1-yl}phenyl)phenoxy]butoxy}acetamido)-3,3-dimethylbutanoyl]-4-hydroxy-N-{[4-(4-methyl-1,3-thiazol-5-yl)phenyl]methyl}pyrrolidine-2-carboxamide]
Dmax (VCaP, read-out: VCaP Dmax (%)): 51 to 70%
DC50 [2]: < 50 nM

CC(C)(C)[C@H](NC(=O)COCCCOCCCCOc1ccc(N2C(=S)N(c3ccc(C#N)c(Cl)c3)C(=O)C2(C)C)cc1F)C(=O)N1C[C@H](O)C[C@H]1C(=O)NCc1ccc(-c2cnco2)cc1 [Example 45, (2S,4R)-1-[(2S)-2-{2-[3-(4-{4-[3-(3-chloro-4-cyanophenyl)-5,5-dimethyl-4-oxo-2-sulfanylideneimidazolidin-1-yl]-2-fluorophenoxy}butoxy)propoxy]acetamido}-3,3-dimethylbutanoyl]-4-hydroxy-N-{[4-(1,3-oxazol-5-yl)phenyl]methyl}pyrrolidine-2-carboxamide]
Dmax (VCaP, read-out: VCaP Dmax (%)): > 71%
DC50 (read-out: VCaP DC50; concentration that caused 50% Androgen Receptor degradation, VCaP cells): < 50 nM

CC(=O)O[C@@H]1C[C@@H](C(=O)N[C@@H](C)c2ccc(-c3scnc3C)cc2)N(C(=O)[C@H](C(C)C)N2Cc3ccc(OCCN4CCN(c5ccc(C(=O)N[C@H]6C(C)(C)[C@H](Oc7ccc(C#N)c(Cl)c7)C6(C)C)cn5)CC4)cc3C2=O)C1 [Example 857, (3R,5S)-1-((S)-2-(6-(2-(4-(5-(((1r,3r)-3-(3-chloro-4-cyanophenoxy)-2,2,4,4-tetramethylcyclobutyl)carbamoyl)pyridin-2-yl)piperazin-1-yl)ethoxy)-1-oxoisoindolin-2-yl)-3-methylbutanoyl)-5-(((S)-1-(4-(4-methylthiazol-5-yl)phenyl)ethyl)carbamoyl)pyrrolidin-3-yl acetate]
DC50 [1]: > 501 nM
Dmax (VCaP, read-out: VCaP Dmax (%)): < 25%

CC(C)(C)[C@H](NC(=O)COCCCCOc1ccc(-c2ccc(N3C(=S)N(c4ccc(C#N)c(C(F)(F)F)c4)C(=O)C3(C)C)cc2)cc1)C(=O)N1C[C@H](O)C[C@H]1C(=O)NCc1ccc(-c2cnco2)cc1 [Example 96, (2S,4R)-1-[(2S)-2-(2-{4-[4-(4-{3-[4-cyano-3-(trifluoromethyl)phenyl]-5,5-dimethyl-4-oxo-2-sulfanylideneimidazolidin-1-yl}phenyl)phenoxy]butoxy}acetamido)-3,3-dimethylbutanoyl]-4-hydroxy-N-{[4-(1,3-oxazol-5-yl)phenyl]methyl}pyrrolidine-2-carboxamide]
Dmax (VCaP, read-out: VCaP Dmax (%)): 51 to 70%
DC50 [2]: < 50 nM

Cc1ncsc1-c1ccc([C@H](C)NC(=O)[C@@H]2C[C@@H](O)CN2C(=O)[C@@H](c2cc(CCCN3CCN(c4ccc(C(=O)N[C@H]5C(C)(C)[C@H](Oc6ccc(C#N)c(Cl)c6)C5(C)C)cn4)CC3)no2)C(C)C)cc1 [Example 819, N-((1r,3r)-3-(3-chloro-4-cyanophenoxy)-2,2,4,4-tetramethylcyclobutyl)-6-(4-(3-(5-((R)-1-((2S, 4R)-4-hydroxy-2-(((S)-1-(4-(4-methylthiazol-5-yl)phenyl)ethyl)carbamoyl)pyrrolidin-1-yl)-3-methyl-1-oxobutan-2-yl)isoxazol-3-yl)propyl)piperazin-1-yl) nicotinamide]
DC50 [1]: < 50 nM
Dmax [3]: > 71%

Cc1ncsc1-c1ccc(CNC(=O)[C@@H]2C[C@@H](O)CN2C(=O)[C@@H](NC(=O)COCCCCCNc2ccc(C(=O)N[C@H]3C(C)(C)[C@H](Oc4ccc(C#N)c(Cl)c4)C3(C)C)cc2F)C(C)(C)C)cc1 [Example 176, (2S,4R)-1-[(2S)-2-[2-({5-[(2-fluoro-4-{[trans-3-(3-chloro-4-cyanophenoxy)-2,2,4,4-tetramethylcyclobutyl]carbamoyl}phenyl)amino]pentyl}oxy)acetamido]-3,3-dimethylbutanoyl]-4-hydroxy-N-{[4-(4-methyl-1,3-thiazol-5-yl)phenyl]methyl} pyrrolidine-2-carboxamide]
Dmax (VCaP, highest percentage of Androgen Receptor degradation observed, VCaP cells (Table 32); read-out: VCaP Dmax (%)): > 71%
DC50 (concentration that caused 50% Androgen Receptor degradation, VCaP cells (Table 32); read-out: VCaP DC50): < 50 nM

C[C@H](NC(=O)[C@@H]1C[C@@H](O)CN1C(=O)[C@@H](NC(=O)COCCOc1ccc(-c2ccc(C(=O)N[C@H]3C(C)(C)[C@H](Oc4ccc(C#N)c(Cl)c4)C3(C)C)cc2)cc1)C(C)(C)C)c1ccc(C#N)cc1 [Example 549]
DC50 (VCaP cells; Table 35; read-out: VCaP DC50): < 50 nM
Dmax (VCaP, VCaP cells; Table 35; read-out: VCaP Dmax (%)): > 71%

Cc1ncsc1-c1ccc([C@H](C)NC(=O)[C@@H]2C[C@@H](O)CN2C(=O)[C@@H](NC(=O)COCC#CCOc2ccc(C(=O)N[C@H]3C(C)(C)[C@H](Oc4ccc(C#N)c(Cl)c4)C3(C)C)cc2)C(C)(C)C)cc1 [Example 388]
DC50 [4]: < 50 nM
Dmax [5]: > 71%

Cc1ncsc1-c1ccc(CNC(=O)[C@@H]2C[C@@H](O)CN2C(=O)[C@@H](NC(=O)COCCCOCCCCOc2ccc(N3C(=S)N(c4cnc(C#N)c(C(F)(F)F)c4)C(=O)C3(C)C)cc2F)C(C)(C)C)cc1 [Example 48, (2S,4R)-1-[(2S)-2-(2-{3-[4-(4-{3-[6-cyano-5-(ttifluoromethyl)pyridin-3-yl]-5,5-dimethyl-4-oxo-2-sulfanylideneimidazolidin-1-yl}-2-fluorophenoxy)butoxy]propoxy}acetamido)-3,3-dimethylbutanoyl]-4-hydroxy-N-{[4-(4-methyl-1,3-thiazol-5-yl)phenyl]methyl}pyrrolidine-2-carboxamide]
Dmax (VCaP, highest percentage of Androgen Receptor degradation observed, VCaP cells; read-out: VCaP Dmax (%)): 51 to 70%
DC50 (concentration that caused 50% Androgen Receptor degradation, VCaP cells; read-out: VCaP DC50): < 50 nM

Cc1ncsc1-c1ccc(CNC(=O)[C@@H]2C[C@@H](O)CN2C(=O)[C@@H](NC(=O)CO[C@@H](C)c2ccc(Oc3ccc(C(=O)N[C@H]4C(C)(C)[C@H](Oc5ccc(C#N)c(Cl)c5)C4(C)C)cc3)cc2)C(C)(C)C)cc1 [Example 406]
DC50 [4]: < 50 nM
Dmax [5]: > 71%

Cc1ncsc1-c1ccc([C@H](C)NC(=O)[C@@H]2C[C@@H](O)CN2C(=O)[C@H](C(C)C)n2cc(-c3ccnc(OC4CN(c5ccc(C(=O)N[C@H]6C(C)(C)[C@H](Oc7ccc(C#N)c(Cl)c7)C6(C)C)cn5)C4)c3)cn2)cc1 [Example 594, N-((1r,3r)-3-(3-chloro-4-cyanophenoxy)-2,2,,4-tetramethylcyclobutyl)-6-(3-((4-(1-((S)-1-((2S,4R)-4-hydroxy-2-(((S)-1-(4-(4-methylthiazol-5-yl)phenyl)ethyl)carbam-oyl)pyrrolidin-1-yl)-3-methyl-1-oxobutan-2-yl)-1H-pyrazol-4-yl)pyridin-2-yl)oxy)azetidin-1-yl)nicotinamide]
DC50 [1]: > 501 nM
Dmax [3]: < 25%

CO[C@@H]1C[C@@H](C(=O)N[C@@H](C)c2ccc(-c3scnc3C)cc2)N(C(=O)[C@@H](NC(=O)CN2CCN(CCCc3ccc(C(=O)N[C@H]4C(C)(C)[C@H](Oc5ccc(C#N)c(C(F)(F)F)c5)C4(C)C)cc3)CC2)C(C)(C)C)C1 [Example 708, (2S,4R)-1-((S)-2-(2-(4-(3-(4-(((1r,3r)-3-(4-cyano-3-(trifluoromethyl)phenoxy)-2,2,4,4-tetramethylcyclobutyl)carbamoyl)phenyl)propyl)piperazin-1-yl)acetamido)-3,3-dimethylbutanoyl)-4-methoxy-N-((S)-1-(4-(4-methylthiazol-5-yl)phenyl)ethyl)pyrrolidine-2-carboxamide]
DC50 [1]: > 501 nM
Dmax (VCaP, read-out: VCaP Dmax (%)): < 25%
